pEC50: −log10 of the molar value. Where a name gives a salt, the structure may show the parent alone.
Tested on: γ-secretase
Experiment: Cellular γ-secretase assay (inhibition of Aβ42 secretion)
Type: cell-based
Conditions: human neuroglioma H4 cells overexpressing human APP, 22 hrs incubation
Procedure: Human neuroglioma H4 cells overexpressing human APP were plated at 30,000 cells/well/[…] in 96-well plates in IMDM media containing 10% FCS, […] Hygromycin B and incubated for 2 h at 37° C., 5% CO2 prior to adding test compounds.
Compounds for testing were dissolved in 100% Me2SO yielding in a 10 mM stock solution. Typically […] of these solutions were further diluted in 1000 μl of IMDM media (w/o FCS). Subsequent 1:1 dilutions gave a ten point dose response curve. 100 μl of each dilution was added to the cells in 96-well plates. Appropriate controls using vehicle only and reference compound were applied to this assay. The final concentration of Me2S0 was 0.4%.
After incubation for 22 hrs at 37° C., 5% CO2, 50 μl supernatant was transferred into round-bottom 96-well polypropylene plates for detection of Aβ42. 50 μl assay buffer (50 mM Tris/Cl, pH 7.4, 60 mM NaCl, 0.5% BSA, 1% TWEEN 20) was added to the wells followed by the addition of 100 μl of detection antibody (ruthenylated BAP15 0.0625 μg/ml in assay buffer). 50 μl of a premix of capture antibody (biotinylated 6E10 antibody, 1 μg/ml) and Steptavidin-coated magnetic beads (Dynal M-280, 0.125 mg/ml) were preincubated for 1 hr at room temperature before adding the assay plates. Assay plates were incubated on a shaker for 3 hrs at room temperature and finally read in the Bioveris M8 Analyser according to the manufacturer's instructions (Bioveris).
IC50 values for inhibition of Aβ42 secretion were calculated by nonlinear regression fit analysis using XLfit 4.0 software (IDBS).

Compound | pEC50
COc1cc(Nc2nc3c(-c4ccc(F)cc4Cl)cc(C)cn3n2)ccc1-n1cnc(C)c1 [Example 65, [8-(2-Chloro-4-fluoro-phenyl)-6-methyl-[1,2,4]triazolo[1,5-a]pyridin-2-yl]-[3-methoxy-4-(4-methyl-imidazol-1-yl)-phenyl]-amine] | 7.62
COc1cc(Nc2nc3c(-c4ccc(F)cc4C)cc(C)cn3n2)ccc1-n1cnc(C)c1 [Example 66, [8-(4-Fluoro-2-methyl-phenyl)-6-methyl-[1,2,4]triazolo[1,5-a]pyridin-2-yl]-[3-methoxy-4-(4-methyl-imidazol-1-yl)-phenyl]-amine] | 6.62
COc1cc(Nc2nc3ncc(C#N)c(-c4ccccc4C)n3n2)ccc1-n1cnc(C)c1 [Example 67, 2-(3-Methoxy-4-(4-methyl-1H-imidazol-1-yl)phenylamino)-7-o-tolyl-[1,2,4]triazolo[1,5-a]pyrimidine-6-carbonitrile] | 6.35
COc1cc(Nc2nc3nccc(-c4ccncc4)n3n2)ccc1-n1cnc(C)c1 [Example 68, N-(3-Methoxy-4-(4-methyl-1H-imidazol-1-yl)phenyl)-7-(pyridin-4-yl)-[1,2,4]triazolo[1,5-a]pyrimidin-2-amine] | 5.93
COc1cc(Nc2nc3ncc(C#N)c(-c4ccccc4F)n3n2)ccc1-n1cnc(C)c1 [Example 69, 7-(2-Fluorophenyl)-2-(3-methoxy-4-(4-methyl-1H-imidazol-1-yl)phenylamino)-[1,2,4]triazolo[1,5-a]pyrimidine-6-carbonitrile] | 6.31
COc1ccccc1-c1c(C#N)cnc2nc(Nc3ccc(-n4cnc(C)c4)c(OC)c3)nn12 [Example 70, 2-(3-Methoxy-4-(4-methyl-1H-imidazol-1-yl)phenylamino)-7-(2-methoxyphenyl)-[1,2,4]triazolo[1,5-a]pyrimidine-6-carbonitrile] | 6.17
COc1cc(Nc2nc3nccc(-c4ccc(F)cc4)n3n2)ccc1-n1cnc(C)c1 [Example 71, [7-(4-Fluoro-phenyl)-[1,2,4]triazolo[1,5-a]pyrimidin-2-yl]-[3-methoxy-4-(4-methyl-imidazol-1-yl)-phenyl]-amine] | 6.57
COc1cc(Nc2nc3c(C)cnc(OCC(F)(F)F)n3n2)ccc1-n1cnc(C)c1 [Example 72, [3-Methoxy-4-(4-methyl-imidazol-1-yl)-phenyl]-[8-methyl-5-(2,2,2-trifluoro-ethoxy)-[1,2,4]triazolo[1,5-c]pyrimidin-2-yl]-amine] | 6.45
COc1cc(Nc2nc3nccc(-c4ccc(F)c(Cl)c4)n3n2)ccc1-n1cnc(C)c1 [Example 73, 7-(3-Chloro-4-fluorophenyl)-N-(3-methoxy-4-(4-methyl-1H-imidazol-1-yl)phenyl)-[1,2,4]triazolo[1,5-a]pyrimidin-2-amine hydrochloride] | 6.44
COc1cc(Nc2nc3c(-c4ccc(F)cc4F)cc(C)cn3n2)ccc1-n1cnc(C)c1 [Example 74, 8-(2,4-Difluorophenyl)-N-(3-methoxy-4-(4-methyl-1H-imidazol-1-yl)phenyl)-6-methyl-[1,2,4]triazolo[1,5-a]pyridin-2-amine] | 7.46
COc1cc(Nc2nc3c(-c4ccc(F)c(C(F)(F)F)c4)cc(C)cn3n2)ccc1-n1cnc(C)c1 [Example 75, 8-(4-Fluoro-3-(trifluoromethyl)phenyl)-N-(3-methoxy-4-(4-methyl-1H-imidazol-1-yl)phenyl)-6-methyl-[1,2,4]triazolo[1,5-a]pyridin-2-amine] | 7.72
COc1cc(Nc2nc3c(-c4ccc(F)c(C)c4)cc(C)cn3n2)ccc1-n1cnc(C)c1 [Example 76, 8-(4-Fluoro-3-methylphenyl)-N-(3-methoxy-4-(4-methyl-1H-imidazol-1-yl)phenyl)-6-methyl-[1,2,4]triazolo[1,5-a]pyridin-2-amine] | 7.72
COc1cc(Nc2nc3c(-c4ccc(F)c(C#N)c4)cc(C)cn3n2)ccc1-n1cnc(C)c1 [Example 78, 2-Fluoro-5-(2-(3-methoxy-4-(4-methyl-1H-imidazol-1-yl)phenylamino)-6-methyl-[1,2,4]triazolo[1,5-a]pyridin-8-yl)benzonitrile] | 7.57
COc1cc(Nc2nc3nc(C(F)(F)F)cc(-c4ccc(F)c(Cl)c4)n3n2)ccc1-n1cnc(C)c1 [Example 79, 7-(3-Chloro-4-fluorophenyl)-N-(3-methoxy-4-(4-methyl-1H-imidazol-1-yl)phenyl)-5-(trifluoromethyl)-[1,2,4]triazolo[1,5-a]pyrimidin-2-amine acetate] | 7.14
COc1cc(Nc2nc3c(-c4ccc(F)c(F)c4)cc(C(F)(F)F)cn3n2)ccc1-n1cnc(C)c1 [Example 80, 8-(3,4-Difluorophenyl)-N-(3-methoxy-4-(4-methyl-1H-imidazol-1-yl)phenyl)-6-(trifluoromethyl)-[1,2,4]triazolo[1,5-a]pyridin-2-amine] | 6.92
COc1cc(Nc2nc3c(-c4ccc(F)c(F)c4)cc(Cl)cn3n2)ccc1-n1cnc(C)c1 [Example 81, 6-Chloro-8-(3,4-difluorophenyl)-N-(3-methoxy-4-(4-methyl-1H-imidazol-1-yl)phenyl)-[1,2,4]triazolo[1,5-a]pyridin-2-amine] | 7.66
COc1cc(Nc2nc3c(-c4ccc(N5CCOCC5)cc4)cc(C)cn3n2)ccc1-n1cnc(C)c1 [Example 82, N-(3-Methoxy-4-(4-methyl-1H-imidazol-1-yl)phenyl)-6-methyl-8-(4-morpholinophenyl)-[1,2,4]triazolo[1,5-a]pyridin-2-amine] | 6.62
COc1cc(Nc2nc3c(-c4ccc(CC#N)cc4)cc(C)cn3n2)ccc1-n1cnc(C)c1 [Example 83, 2-(4-(2-(3-Methoxy-4-(4-methyl-1H-imidazol-1-yl)phenylamino)-6-methyl-[1,2,4]triazolo[1,5-a]pyridin-8-yl)phenyl)acetonitrile] | 6.39
COc1ccc(-c2cc(C)cn3nc(Nc4ccc(-n5cnc(C)c5)c(OC)c4)nc23)c(OC)c1 [Example 84, 8-(2,4-Dimethoxyphenyl)-N-(3-methoxy-4-(4-methyl-1H-imidazol-1-yl)phenyl)-6-methyl-[1,2,4]triazolo[1,5-a]pyridin-2-amine] | 6.49
COc1cc(Nc2nc3c(-c4ccc(F)c(F)c4)cc(F)cn3n2)ccc1-n1cnc(C)c1 [Example 85, 8-(3,4-Difluorophenyl)-6-fluoro-N-(3-methoxy-4-(4-methyl-1H-imidazol-1-yl)phenyl)-[1,2,4]triazolo[1,5-a]pyridin-2-amine] | 7.49
COc1cc(Nc2nc3c(-c4ccc(F)cc4Cl)cc(F)cn3n2)ccc1-n1cnc(C)c1 [Example 86, 8-(2-Chloro-4-fluorophenyl)-6-fluoro-N-(3-methoxy-4-(4-methyl-1H-imidazol-1-yl)phenyl)-[1,2,4]triazolo[1,5-a]pyridin-2-amine] | 6.84
COc1cc(Nc2nc3c(-c4ccc5nc(C)oc5c4)cc(C)cn3n2)ccc1-n1cnc(C)c1 [Example 87, N-(3-Methoxy-4-(4-methyl-1H-imidazol-1-yl)phenyl)-6-methyl-8-(2-methylbenzo[d]oxazol-6-yl)-[1,2,4]triazolo[1,5-a]pyridin-2-amine] | 7.36
COc1cc(Nc2nc3c(-c4ccc5ncn(C)c5c4)cc(C)cn3n2)ccc1-n1cnc(C)c1 [Example 88, N-(3-Methoxy-4-(4-methyl-1H-imidazol-1-yl)phenyl)-6-methyl-8-(1-methyl-1H-benzo[d]imidazol-6-yl)-[1,2,4]triazolo[1,5-a]pyridin-2-amine] | 6.73
COc1cc(Nc2nc3c(-c4ccc5c(c4)OCCN5C)cc(C)cn3n2)ccc1-n1cnc(C)c1 [Example 89, N-(3-Methoxy-4-(4-methyl-1H-imidazol-1-yl)phenyl)-6-methyl-8-(4-methyl-3,4-dihydro-2H-benzo[b][1,4]oxazin-7-yl)-[1,2,4]triazolo[1,5-a]pyridin-2-amine] | 6.54
COc1cc(Nc2nc3c(-c4ccc(C(C)(C)O)c(F)c4)cc(C)cn3n2)ccc1-n1cnc(C)c1 [Example 90, 2-(2-Fluoro-4-(2-(3-methoxy-4-(4-methyl-1H-imidazol-1-yl)phenylamino)-6-methyl-[1,2,4]triazolo[1,5-a]pyridin-8-yl)phenyl)propan-2-ol] | 6.32
COc1cc(Nc2nc3c(-c4ccc(Cl)cc4C=O)cc(C)cn3n2)ccc1-n1cnc(C)c1 [Example 91, 5-Chloro-2-(2-(3-methoxy-4-(4-methyl-1H-imidazol-1-yl)phenylamino)-6-methyl-[1,2,4]triazolo[1,5-a]pyridin-8-yl)benzaldehyde] | 6.51
COc1cc(Nc2nc3c(-c4ccc(Cl)cc4CO)cc(C)cn3n2)ccc1-n1cnc(C)c1 [Example 92, (5-Chloro-2-(2-(3-methoxy-4-(4-methyl-1H-imidazol-1-yl)phenylamino)-6-methyl-[1,2,4]triazolo[1,5-a]pyridin-8-yl)phenyl)methanol] | 6.43
COc1cc(Nc2nc3nc(C)cc(-c4ccc(F)c(Cl)c4)n3n2)ccc1-n1cnc(C)c1 [Example 93, 7-(3-Chloro-4-fluorophenyl)-N-(3-methoxy-4-(4-methyl-1H-imidazol-1-yl)phenyl)-5-methyl-[1,2,4]triazolo[1,5-a]pyrimidin-2-amine] | 7.17

Source: patent US20110190269A1, “GAMMA SECRETASE MODULATORS” (priority 2010, published 2011)
